ChEMBL document CHEMBL3351613, “Indolylarylsulfones carrying a heterocyclic tail as very potent and broad spectrum HIV-1 non-nucleoside reverse transcriptase inhibitors” (J Med Chem, 2014)
Activity calls are given as the source filed them. The rule behind the calls is not given here.

Key:
[1] = target: Human immunodeficiency virus type 1 reverse transcriptase (Human immunodeficiency virus 1, UniProt Q72547, L100I)
Description: Inhibition of wild type HIV1 reverse transcriptase L100I mutant assessed as reduction in enzyme activity

[2] = target: Human immunodeficiency virus type 1 reverse transcriptase (Human immunodeficiency virus 1, UniProt Q72547, Y181I)
[3] = system: Human immunodeficiency virus 2; assay: Antiviral activity against HIV2 ROD infected in human CEM cells assessed as protection against virus-induced cytopathicity by giant cell formation assay; type: functional, organism-based; conditions: Human immunodeficiency virus 2, ISOLATE ROD, CCRF-CEM
[4] = system: Human immunodeficiency virus 1; assay: Antiviral activity against HIV1 NL4-3 expressing reverse transcriptase L100I mutant infected in human MT4 cells assessed as reduction in virus-induced cell death by MTT assay; type: functional, organism-based; conditions: Human immunodeficiency virus 1, NL4-3, MT4
[5] = Cytotoxic activity against human MT4 cells by MTT assay; type: cell-based
[6] = in vitro; conditions: human, MT4 cells
Description: Selectivity index, ratio of CC50 for human MT4 cells to EC50 for HIV1 NL4-3 infected in human MT4 cells

[7] = system: Human immunodeficiency virus 1; assay: Antiviral activity against HIV1 NL4-3 infected in human MT4 cells assessed as reduction in virus-induced cell death by MTT assay; type: functional, organism-based; conditions: Human immunodeficiency virus 1, NL4-3, MT4
[8] = target: T1, Human immunodeficiency virus type 1 reverse transcriptase (Human immunodeficiency virus 1, UniProt Q72547)
Description: Inhibition of wild type HIV1 reverse transcriptase assessed as reduction in enzyme activity

[9] = system: Human immunodeficiency virus 1; assay: Antiviral activity against HIV1 3B infected in human CEM cells assessed as protection against virus-induced cytopathicity by giant cell formation assay; type: functional, organism-based; conditions: Human immunodeficiency virus 1, 3B, CCRF-CEM
[10] = system: Human immunodeficiency virus 1; type: functional, organism-based; conditions: Human immunodeficiency virus 1, NL4-3, MT4
[11] = system: Human immunodeficiency virus 1; assay: Antiviral activity against HIV1 NL4-3 expressing reverse transcriptase K103N mutant infected in human MT4 cells assessed as reduction in virus-induced cell death by MTT assay; type: functional, organism-based; conditions: Human immunodeficiency virus 1, NL4-3, MT4
[12] = target: Human immunodeficiency virus type 1 reverse transcriptase (Human immunodeficiency virus 1, UniProt Q72547, K103N)
Description: Inhibition of wild type HIV1 reverse transcriptase K103N mutant assessed as reduction in enzyme activity

[13] = system: Human immunodeficiency virus 1; type: functional, organism-based; conditions: Human immunodeficiency virus 1, NL4-3, MT4; remark: listed apart in the source
[14] = target: Human immunodeficiency virus type 1 reverse transcriptase (Human immunodeficiency virus 1, UniProt Q72547, V106A); assay: Inhibition of […] HIV1 reverse transcriptase V106A mutant assessed as reduction in enzyme activity
[15] = target: T1, Human immunodeficiency virus type 1 reverse transcriptase; remark: listed apart in the source
[16] = system: Human immunodeficiency virus 1; type: functional, organism-based; conditions: Human immunodeficiency virus 1, NL4-3, MT4; remark: listed apart in the source
[17] = system: Human immunodeficiency virus 2; assay: Antiviral activity against HIV2 ROD infected in human PBMC cells assessed as reduction in p24 antigen production; type: functional, organism-based; conditions: ISOLATE ROD
[18] = system: Human immunodeficiency virus 1; assay: Antiviral activity against HIV1 Clade A/E (ID12) infected in human PBMC assessed as reduction in p24 antigen production; type: functional, organism-based; conditions: Human immunodeficiency virus 1, Clade A/E (ID12)
[19] = system: Human immunodeficiency virus 1; assay: Antiviral activity against HIV1 Clade A (UG273) infected in human PBMC assessed as reduction in p24 antigen production; type: functional, organism-based; conditions: Human immunodeficiency virus 1, Clade A (UG273)
[20] = system: Human immunodeficiency virus 1; assay: Antiviral activity against HIV1 Clade F (BZ162) infected in human PBMC assessed as reduction in p24 antigen production; type: functional, organism-based; conditions: Human immunodeficiency virus 1, Clade F (BZ162)
[21] = system: Human immunodeficiency virus 1; assay: Antiviral activity against HIV1 Clade G (HH8793) infected in human PBMC assessed as reduction in p24 antigen production; type: functional, organism-based; conditions: Human immunodeficiency virus 1, Clade G (HH8793)
[22] = system: Human immunodeficiency virus 1; assay: Antiviral activity against HIV1 Clade D (UG270) infected in human PBMC assessed as reduction in p24 antigen production; type: functional, organism-based; conditions: Human immunodeficiency virus 1, Clade D (UG270)
[23] = system: Human immunodeficiency virus 1; assay: Antiviral activity against HIV1 Clade B (BaL) infected in human PBMC assessed as reduction in p24 antigen production; type: functional, organism-based; conditions: Human immunodeficiency virus 1, Clade B (BaL)
[24] = system: Human immunodeficiency virus 1; assay: Antiviral activity against HIV1 Clade C (DJ259) infected in human PBMC assessed as reduction in p24 antigen production; type: functional, organism-based; conditions: Human immunodeficiency virus 1, Clade C (DJ259)

Cc1cc(C)cc(S(=O)(=O)c2c(C(=O)NC(C)c3ccccc3)[nH]c3ccc(Cl)cc23)c1 (stereo not drawn)
IC50 [1]: 70 nM | IC50 [2]: 8230 nM | EC50 [3]: > 10000 nM | EC50 [4]: 26 nM | CC50 [5]: > 53500 nM | selectivity ratio [6]: > 206000

Cc1cc(C)cc(S(=O)(=O)c2c(C(=O)NCCc3cccs3)[nH]c3ccc(Cl)cc23)c1
IC50 [1]: 1 nM | EC50 [7]: 0.84 nM | IC50 [2]: > 20000 nM | IC50 [8]: 70 nM | EC50 [3]: > 50000 nM | EC50 [4]: 5.4 nM | EC50 [9]: 3.4 nM | EC50 [10]: 160 nM | EC50 [11]: 21 nM | CC50 [5]: > 52900 nM | IC50 [12]: 42 nM | selectivity ratio [6]: > 62900 | EC50 [13]: > 52900 nM

O=C1Nc2ccc(Cl)cc2[C@@](C#CC2CC2)(C(F)(F)F)O1 [EFAVIRENZ]
EC50 [4]: 22 nM | CC50 [5]: > 15800 nM | EC50 [13]: > 317 nM

Cc1cc(C)cc(S(=O)(=O)c2c(C(=O)NC(C)c3ccncc3)[nH]c3ccc(Cl)cc23)c1 (racemic)
IC50 [1]: 30 nM | EC50 [7]: 0.2 nM | IC50 [14]: 40 nM | IC50 [2]: 3550 nM | IC50 [8]: 40 nM | EC50 [3]: > 10000 nM | EC50 [4]: 4.7 nM | EC50 [9]: 4.1 nM | EC50 [10]: 87 nM | EC50 [11]: 9.4 nM | CC50 [5]: 30200 nM | IC50 [12]: 220 nM | IC50 [15]: 3500 nM | selectivity ratio [6]: 151000 | EC50 [13]: 1110 nM

Cc1cc(C)cc(S(=O)(=O)c2c(C(=O)Nc3cccc(N)c3)[nH]c3ccc(Cl)cc23)c1
EC50 [7]: 0.22 nM | EC50 [16]: 947 nM | IC50 [2]: 226 nM | IC50 [8]: 19 nM | EC50 [4]: 57 nM | EC50 [9]: 17 nM | EC50 [10]: 66 nM | EC50 [11]: 4.4 nM | CC50 [5]: 23800 nM | IC50 [12]: 310 nM | selectivity ratio [6]: 108000 | EC50 [13]: 2140 nM

Cc1cc(C)cc(S(=O)(=O)c2c(C(=O)NC(C)c3ccccn3)[nH]c3ccc(Cl)cc23)c1 (racemic)
IC50 [1]: 30 nM | EC50 [7]: 0.6 nM | IC50 [2]: 11100 nM | IC50 [8]: 64 nM | EC50 [3]: > 10000 nM | EC50 [4]: 45 nM | EC50 [9]: 3.2 nM | EC50 [10]: 230 nM | EC50 [11]: 34 nM | CC50 [5]: 54600 nM | IC50 [12]: 100 nM | selectivity ratio [6]: 91000 | EC50 [13]: 6000 nM

Cc1cc(C)cc(S(=O)(=O)c2c(C(=O)N[C@@H](C)c3ccncc3)[nH]c3ccc(Cl)cc23)c1
IC50 [1]: 20 nM | EC50 [7]: 0.2 nM | Activity [17]: inactive | EC50 [16]: 5170 nM | EC50 [18]: 4.1 nM | IC50 [14]: 55 nM | IC50 [8]: 40 nM | EC50 [19]: 5.2 nM | EC50 [10]: 128 nM | EC50 [20]: 4.9 nM | EC50 [21]: 3.6 nM | EC50 [11]: 4.3 nM | IC50 [12]: 700 nM | EC50 [22]: 4.3 nM | EC50 [23]: 2 nM | IC50 [15]: 110000 nM | EC50 [24]: 1.4 nM | EC50 [13]: 4120 nM

O=C(NCc1ccncc1)c1[nH]c2ccc(Cl)cc2c1S(=O)(=O)c1c(Cl)cccc1Cl
EC50 [7]: 0.81 nM | EC50 [16]: > 50500 nM | EC50 [10]: 2530 nM | EC50 [11]: 5260 nM | CC50 [5]: > 50300 nM | selectivity ratio [6]: > 62400 | EC50 [13]: > 50500 nM

Cc1cccc(C)c1S(=O)(=O)c1c(C(N)=O)[nH]c2ccc(Cl)cc12
EC50 [7]: 44.1 nM | EC50 [16]: > 48900 nM | EC50 [10]: 42700 nM | EC50 [11]: > 49400 nM | CC50 [5]: > 48900 nM | selectivity ratio [6]: > 1110 | EC50 [13]: > 48900 nM

NC(=O)c1[nH]c2ccc(Cl)cc2c1S(=O)(=O)c1c(Cl)cccc1Cl
EC50 [7]: 0.25 nM | EC50 [16]: > 16000 nM | EC50 [10]: 5170 nM | EC50 [11]: > 16000 nM | CC50 [5]: 16000 nM | selectivity ratio [6]: 64100 | EC50 [13]: 16000 nM

Cc1cc(C)cc(S(=O)(=O)c2c(C(=O)NC(C)c3cccnc3)[nH]c3ccc(Cl)cc23)c1 (racemic)
IC50 [1]: 20 nM | EC50 [7]: 0.6 nM | IC50 [2]: > 20000 nM | IC50 [8]: 100 nM | EC50 [3]: > 10000 nM | EC50 [4]: 20 nM | EC50 [9]: 6.6 nM | EC50 [10]: 220 nM | EC50 [11]: 34 nM | CC50 [5]: 54600 nM | IC50 [12]: 120 nM | selectivity ratio [6]: 91000 | EC50 [13]: 8480 nM

Cc1cc(C)cc(S(=O)(=O)c2c(C(=O)NCc3ccncn3)[nH]c3ccc(Cl)cc23)c1
EC50 [7]: 0.22 nM | EC50 [16]: 50.6 nM | IC50 [2]: 4.2 nM | IC50 [8]: 42 nM | EC50 [10]: 2.2 nM | CC50 [5]: > 55000 nM | IC50 [12]: 96 nM | selectivity ratio [6]: > 250000 | EC50 [13]: 132 nM
